Three compounds from patent US20240317791A1 (priority 2021, published 2024) can be followed below.

Holding throughout (format): cell-based
In experiment [1] the test system is Mucor circinelloides. Description: MIC determination against ATCC and clinical isolates of the order Mucorales (CLSI M27, 4th edition). From the text:
(§1) MIC: Minimum Inhibitory Concentration (MIC) is defined as the lowest concentration of an antimicrobial ingredient that is bacteriostatic.
(§2) Testing has been performed in triplicates for each isolate.

The subject of experiment [2] is Rhizopus microsporus. Description: MIC determination against clinical isolates of the order Mucorales (CLSI M27, 4th edition). Particulars: strain 3435, clinical strain.
Text: as §1, §2

In experiment [3] the test system is Rhizopus oryzae. The description is as above. The following applies: Rhizopus arrhizus, strain 2086, clinical strain.
Text: as §1, §2

Experiment [4] deals with Candida auris. Description: MIC determination against clinical isolates of Candida auris (CLSI M27, 4th edition). Particulars: Candidozyma auris, read-out: MIC values.
Text: as §1, §2

Where [5] appears, read: strain I.2 (No 2), clade I/India.
The mark [6] stands for this setting: strain I.3 (No 3), clade I/India.
The mark [7] stands for this setting: strain I.4 (No 4), clade I/India.
[8] abbreviates: strain II.1 (No 5), clade II/Japan.
Setting [9] is: strain II.2 (No 1), clade II/India.
[10] abbreviates: strain III.7 (No 12), clade III/Switzerland.
[11] abbreviates: strain III.8 (No 13), clade III/Israel.
Where [12] appears, read: strain III.9 (No 14), clade III/Israel.
Setting [13] is: strain IV.1 (No 15), clade IV/Colombia.
[14] abbreviates: strain IV.10 (No 7), clade IV/Israel.
Setting [15] is: strain IV.11 (No 8), clade IV/Israel.
[16] abbreviates: strain IV.12 (No 9), clade IV/Israel.
The mark [17] stands for this setting: strain IV.13 (No 10), clade IV/Israel.
Where [18] appears, read: strain IV.14 (No 11), clade IV/Israel.
Setting [19] is: strain IV.2 (No 16), clade IV/Colombia.
Where [20] appears, read: strain IV.3 (No 17), clade IV/Colombia.
[21] abbreviates: strain IV.4 (No 18), clade IV/Colombia.
Where [22] appears, read: strain IV.5 (No 19), clade IV/Colombia.
Where [23] appears, read: strain IV.6 (No 20), clade IV/Colombia.
Setting [24] is: strain IV.7 (No 21), clade IV/Colombia.
Setting [25] is: strain IV.8 (No 22), clade IV/Colombia.
The mark [26] stands for this setting: strain IV.9 (No 6), clade IV/Israel.

As a reminder, the MIC is the smallest concentration in the dilution series that meets the test's criterion for growth inhibition.

Values after ≈ are worked out from the molar mass of the structure shown. Read-outs that look alike come from different tables or passages of the source.

For the compound `CC[C@@H]([C@H](C)O)n1ncn(-c2ccc(N3CCN(c4ccc(OC[C@@H]5CO[C@@](Cn6cncn6)(c6ccc(F)cc6F)C5)cc4)CC3)cc2)c1=O` [Posaconazole], the MIC in experiment [1] (ATCC24905, strain ATCC 24905, ATCC strain) is 1 µg/mL (≈ 1.43 µM); in experiment [1] (strain 2109, clinical strain), 0.5 µg/mL (≈ 0.713 µM); in experiment [1] (strain 2707, clinical strain), 0.5 µg/mL (≈ 0.713 µM); in experiment [1] (strain 4280, clinical strain), 1 µg/mL (≈ 1.43 µM); in experiment [2], 0.5 µg/mL (≈ 0.713 µM); in experiment [3], 0.25 µg/mL (≈ 0.357 µM).

For `OC(Cn1cncn1)(Cn1cncn1)c1ccc(F)cc1F` [Fluconazole], the MIC in experiment [4] (setting [5]) is 1020 µg/mL (≈ 3340 µM); in experiment [4] (setting [6]), 1020 µg/mL (≈ 3340 µM); in experiment [4] (setting [7]), 1020 µg/mL (≈ 3340 µM); in experiment [4] (setting [8]), 4 µg/mL (≈ 13.1 µM); in experiment [4] (setting [9]) it was 32 µg/mL (≈ 104 µM); in experiment [4] (setting [10]), 1020 µg/mL (≈ 3340 µM). For the same compound, the MIC in experiment [4] (setting [11]) was found to be 512 µg/mL (≈ 1670 µM); in experiment [4] (setting [12]), 1020 µg/mL (≈ 3340 µM); in experiment [4] (setting [13]), 4 µg/mL (≈ 13.1 µM); in experiment [4] (setting [14]) it was 32 µg/mL (≈ 104 µM); in experiment [4] (setting [15]) it was 32 µg/mL (≈ 104 µM); in experiment [4] (setting [16]), 32 µg/mL (≈ 104 µM). Also, the MIC stood at 32 µg/mL (≈ 104 µM) in experiment [4] (setting [17]); 32 µg/mL (≈ 104 µM) in experiment [4] (setting [18]); 128 µg/mL (≈ 418 µM) in experiment [4] (setting [19]); 128 µg/mL (≈ 418 µM) in experiment [4] (setting [20]); 128 µg/mL (≈ 418 µM) in experiment [4] (setting [21]); 128 µg/mL (≈ 418 µM) in experiment [4] (setting [22]). Also, the MIC in experiment [4] (setting [23]) is 128 µg/mL (≈ 418 µM); in experiment [4] (setting [24]) it was 1020 µg/mL (≈ 3340 µM); in experiment [4] (setting [25]), 1020 µg/mL (≈ 3340 µM); in experiment [4] (setting [26]), 16 µg/mL (≈ 52.2 µM).

For the compound `C[C@@H](c1ncncc1F)[C@](O)(Cn1cncn1)c1ccc(F)cc1F` [Voriconazole], the MIC in experiment [4] (setting [5]) came to 1 µg/mL (≈ 2.86 µM); in experiment [4] (setting [6]), 2 µg/mL (≈ 5.73 µM); in experiment [4] (setting [7]), 1 µg/mL (≈ 2.86 µM); in experiment [4] (setting [8]), 0.0625 µg/mL (≈ 0.179 µM); in experiment [4] (setting [9]), 1 µg/mL (≈ 2.86 µM); in experiment [4] (setting [10]), 2 µg/mL (≈ 5.73 µM). Also, the MIC in experiment [4] (setting [11]) is 2 µg/mL (≈ 5.73 µM); in experiment [4] (setting [12]) it was 2 µg/mL (≈ 5.73 µM); in experiment [4] (setting [13]) it was 0.0625 µg/mL (≈ 0.179 µM); in experiment [4] (setting [14]), 0.5 µg/mL (≈ 1.43 µM); in experiment [4] (setting [15]), 0.5 µg/mL (≈ 1.43 µM); in experiment [4] (setting [16]), 1 µg/mL (≈ 2.86 µM). Besides, the MIC in experiment [4] (setting [17]) is 0.5 µg/mL (≈ 1.43 µM); in experiment [4] (setting [18]), 1 µg/mL (≈ 2.86 µM); in experiment [4] (setting [19]) it was 1 µg/mL (≈ 2.86 µM); in experiment [4] (setting [20]) it was 1 µg/mL (≈ 2.86 µM); in experiment [4] (setting [21]) it was 0.5 µg/mL (≈ 1.43 µM); in experiment [4] (setting [22]) it was 0.5 µg/mL (≈ 1.43 µM). Also, the MIC is 0.5 µg/mL (≈ 1.43 µM) in experiment [4] (setting [23]), 8 µg/mL (≈ 22.9 µM) in experiment [4] (setting [24]), 8 µg/mL (≈ 22.9 µM) in experiment [4] (setting [25]) and 1 µg/mL (≈ 2.86 µM) in experiment [4] (setting [26]).
